Source: US20220363649A1, “ORGANIC COMPOUNDS” (Rutgers, The State University of New Jersey, priority 2018, published 2022)

What was measured:
[1] = biological target: T1, S1R (Cavia porcellus, UniProt Q60492); experiment: S1R radiolabeled binding assay, guinea pig whole brain, [3H]-pentazocine; conditions: guinea pig brain membranes (Compounds 1-9); read-out: S1R Ki
T1 construct: performed using Guinea pig whole brain according to the protocol previously reported; from tissue; host or cells: guinea pig whole brain membrane preparations
Description: Following 1 h incubation at 25° C., the binding assay was terminated by addition of cold buffer. The mixture was then filtered through Whatman GF/B filters and washed with cold buffer. Radioactivity was identified using the liquid scintillation counter.
Receptor binding data were analyzed by nonlinear regression of saturation and competition curves using the GraphPad Prism 7.0 software (GraphPad Software, La Jolla, Calif.).
(§1) Radiolabeled binding assays were conducted using two different species.

[2] = system: Sprague-Dawley rats; experiment: Rat rotarod test (motor incoordination); type: in vivo; conditions: i.p., male Sprague-Dawley rats
Description: Groups of 6 pre-selected male (Sprague-Dawley) rats weighing 180±20 g were included to the study motor coordination. Rats were trained on a rod at a continuous accelerating speed from 4 to 30 rpm/min during a time period of 4 minutes for at least 3 times before the study. Rats were randomly assigned to different groups with similar baseline.
Vehicle and test articles were administered by intraperitoneal (i.p.) injection. The rats were placed on the accelerating rotarod at 30, 60, 90 and 120 min post dosing, and the time (seconds) the rat remained on the rotarod was recorded.

[3] = system: Sprague-Dawley rats; experiment: Rat formalin test; type: in vivo; conditions: 20 and 40 mg/kg, i.p., hind paw licking time
Description: One day after the rotarod test, vehicle and test articles were administered intraperitoneally again to groups of 6 Sprague-Dawley male rats weighting 180±20 g, 30 minutes prior to sub-plantar injection of formalin (0.05 ml, 2% solution). The hind paw licking time was recorded during a 0-35 min period at 5-min intervals after formalin challenge as a measure of analgesic activity of the test compound.

[4] = system: Sprague-Dawley rats; experiment: Paclitaxel-induced cold hyperalgesia model in rats; type: in vivo, rat; conditions: i.p.
Description: (§2) Male Sprague-Dawley rats weighing 240+20 grams were employed. Paclitaxel (brand name TAXOL®, 2 mg/kg) is injected intraperitoneally (i.p.) on days 1, 3, 5 and 7 with a total cumulative dose of 8 mg/kg. During the course of the study, the animals were housed individually under constant temperature, humidity and a 12-hour light-dark cycle.
(§3) Test articles, vehicle and gabapentin were administered intraperitoneally on Days 14 or 21.
Cold hyperalgesia was assessed by the […] and measured prior to Paclitaxel injections (Day 0) and test article administration (Days 13 or 20) and at 0.5 hour after dosing of vehicle or test articles on Days 14 or 21. The animals were randomized to each groups based on pre-dose cold hyperalgesia values (Days 13 or 20). Test rat was placed in 2.5 cm depth of a 0-2° C. ice water bath in a Plexiglas arena 32×32 cm×27 cm high. Withdrawal latency of the left paw was recorded and averaged twice for cold hyperalgesia assessment. A 20 sec cut time was employed.

[5] = system: Sprague-Dawley rats; experiment: Paclitaxel-induced mechanical allodynia model in rats; type: in vivo, rat; conditions: i.p., von Frey
Description: as §2, §3
Mechanical allodynia was assessed by the manual von Frey test and measured prior to Paclitaxel injections (Day 0) and test article administration (Days 13 or 20) and at 0.5 hour after dosing of vehicle or test articles on Days 14 or 21. The animals were randomized to each groups based on pre-dose mechanical allodynia values (Days 13 or 20). The animals were given 20 to 30 minutes to acclimatize prior to testing. The paw was touched with a series of 8 manual von Frey monofilaments with logarithmically incremental stiffness [3.61 (0.4 g), 3.84 (0.6 g), 4.08 (1.0 g), 4.31 (2.0 g), 4.56 (4.0 g), 4.74 (6.0 g), 4.93 (8.0 g), and 5.18 (15.0 g)]. […] Mechanical threshold (50% g threshold) was assessed using the up- and down-method following the procedure described by Chaplan, et al., 1994, J Neurosci Methods 53:55-63.

[6] = system: Sprague-Dawley rats; experiment: STZ-induced mechanical allodynia model in diabetic rats; type: in vivo, rat; conditions: i.p., von Frey
Description: (§4) Male Sprague-Dawley rats weighing 225-250 grams were employed. Streptozotocin (STZ, 50 mg/kg) freshly dissolved in 0.9% sterile saline was injected intraperitoneally on day 0. Three days later, diabetes was confirmed by existence of blood glucose >350 mg/dL as measured by glucometer. Animal health was monitored biweekly for 14 days, at which point mechanical allodynia and thermal hyperalgesia were measured and confirmed. During the course of the study, the animals were housed individually under constant temperature, humidity and a 12-hour light-dark cycle. The animals were tested prior to study inclusion for mechanical allodynia and thermal hyperalgesia.
(§5) The behavioral assessments include mechanical allodynia and thermal hyperalgesia. Test articles, vehicle and gabapentin were administered intraperitoneally on Days 14 or 21.
Mechanical allodynia was assessed by the manual von Frey test and measured prior to STZ injections (Day 0). The animals were then randomized to each groups based on pre-dose mechanical allodynia values (Day 13 and Day 20). The mechanical allodynia test was performed again at 0.5 and 1.5 hours after vehicle, test article or gabapentin administration on Day 14. […] Mechanical threshold (50% g threshold) was assessed using the up- and down-method following the procedure described by Chaplan, et al., 1994, J Neurosci Methods 53:55-63).

[7] = system: Sprague-Dawley rats; experiment: STZ-induced thermal hyperalgesia model in diabetic rats; type: in vivo, rat; conditions: i.p.
Description: as §4, §5
Thermal hyperalgesia: The animals were tested prior to study inclusion for thermal hyperalgesia on day 13 and Day 20. Thermal hyperalgesia was measured at 1 and 2 hours after dosing of vehicle or test article on Day 14 and Day 21 by using the IITC Model-336G (IITC INC. USA) apparatus. Each rat was placed within a plastic box atop a glass floor for 20 to 30 minutes. A light beam under the floor was aimed at the plantar surface of the left hind paw. The time was measured automatically when the paw was withdrawn away from the thermal stimulus. […]

[8] = system: CD-1 mice; experiment: Mouse tail flick test, potentiation of morphine analgesia; type: in vivo; conditions: mouse model of acute pain, n=8, i.p.; morphine SC
Description: Male young CD-1 mice (at the age of 7-8 weeks) were used for this study. Tail flick latency was determined using a lamp device (design derived from D'Amour & Smith, 1941, J. Pharmacol. Exp. Ther. 72(1):74-79). The behavioral endpoint was defined as a flick of the tail out of the path of the light. The intensity of the light was adjusted to provide a baseline response time of approximately 2-4 seconds. The light beam was focused approximately 4 cm from the tip of the tail. A cut off time of 20 seconds was used to prevent tissue damage. Mice received a single intra-peritoneal (IP) injection of either vehicle (saline) or test substance at appropriate doses followed immediately by a single sub-cutaneous (SC) administration of saline or Morphine at the appropriate dose for each group. Thirty minutes after the SC administration, the animals were gently restrained in a manner which allowed access to the tail and positioned beneath a light beam (D'Amour & Smith, 1941, J Pharmacol Exp Ther 72(1):74-79) with the tail aligned for measurement at approximately 4 cm from tail tip. The lamp device automatically timed each tail flick response once the tail was flicked away from the light beam by a sensor beneath the platform.

[9] = biological target: T2, human S1R (Homo sapiens, UniProt Q99720); experiment: Human S1R radiolabeled binding assay, human jurkat cell membranes, [3H]-pentazocine; conditions: human membranes (Compounds 10-76)
T2 construct: experimentally determined in human jurkat cell membranes using 15.0 nM; endogenous in cells; host or cells: human Jurkat cell membranes
Description: The binding process was terminated by addition of cold buffer. Then, the mixture was filtered and washed with cold buffer. Radioactivity was identified using the TopCount NTX liquid scintillation counter (PerkinElmer, Waltham, Mass.).
as §1

[10] = biological target: T3, human S2R (Homo sapiens, UniProt Q5BJF2); experiment: Human S2R radiolabeled binding assay, Jurkat Clone E6-1 cell membranes, [3H] DTG; conditions: human membranes (Compounds 10-76)
T3 construct: performed using Jurkat cell line Clone E6-1 cells with 0.025 μM; endogenous in cells; host or cells: Jurkat Clone E6-1 cell membranes
Description: The radiolabeled binding assay of the human S1R and S2R were performed using human jurkat cell membranes according to the protocol previously reported (Ganapathy, et al., 1999, J. Pharmacol. Exp. Ther. 289:251-60).
DTG as radioligand. […] The cells were incubated in RPMI 1640 Medium with 10% FBS, 100 U/ml penicillin and […] streptomycin. After incubation, the cells were suspended in 5 mM potassium phosphate buffer (pH=7.6). The membrane protein concentration was controlled at 5 mg/mL. The collected membrane protein was incubated with ligands in potassium phosphate buffer for 1 hour at room temperature and terminated by adding ice-cold buffer. Then the mixture is filtered with 0.7 μm syringe filter and washed three times. The radioactivity is determined by liquid scintillation spectrometry.
Radiolabeled binding assays were conducted using two different species. Compounds 1-9 were assayed using guinea pig brain membranes for the binding assays. Compounds 10-76 were assayed using human brain membranes for the binding assays.

[11] = system: Sprague Dawley rats; experiment: Spinal nerve ligation (SNL) Chung model in rats, mechanical allodynia; type: in vivo, rat; conditions: two doses, von Frey
Description: (§6) Groups of 6 male Sprague Dawley rats weighing 160-200 grams were used. Prior to surgery and post-operatively, the animals were housed socially under constant temperature, humidity, and a 12-hour light-dark cycle. Following acclimation to the animal colony for 7 days, the rats were tested for mechanical allodynia and thermal hyperalgesia for baseline (pre-dose) values on Day −1. On Day 0, the animals were anesthetized with pentobarbital (50 mg/kg, i.p.). The left paraspinal muscles were separated from the spinous processes (L4-S2) and the L6-S1 facet joint was nipped. The transverse process of L6 was removed to allow for identifying the location of the L5 and L6 spinal nerves. The left L5-L6 spinal nerves were isolated and tightly ligated with 6.0 silk sutures. The rats are allowed to recover for 13 days.
Rats were tested for mechanical allodynia and thermal hyperalgesia following acclimation on Day −1 for baseline (pre-dose) values. Following the recovery period, the rats were tested to verify the mechanical allodynia on Day 13. […]
Mechanical allodynia: The mechanical allodynia is assessed by the manual von Frey test (Chaplan up/down method using von Frey filaments on the plantar surface of the CFA injected paw). […] Mechanical threshold (50% g threshold) is assessed using the up- and down-method following the procedure described by Chaplan (Chaplan et al., 1994, J Neurosci Methods 53:55-63).

[12] = system: Sprague Dawley rats; experiment: Spinal nerve ligation (SNL) Chung model in rats, thermal hyperalgesia; type: in vivo, rat; conditions: two doses, Hargreaves method
Description: as §6
Following a four (4) day wash out “period”, the rats were tested in the thermal hyperalgesia test and randomized to balance treatment groups. On Day 19, the rats were administered vehicle, Compound 68 at two doses, or gabapentin 50 mg/kg, IP. At 15 and 75 minutes post-dose the thermal hyperalgesia is tested again.
Thermal hyperalgesia: Thermal hyperalgesia is measured by the Hargreaves method. […] The time is measured automatically when the paw is withdrawn away from the thermal stimulus. […]

T3 sequence (Q5BJF2 whole entry): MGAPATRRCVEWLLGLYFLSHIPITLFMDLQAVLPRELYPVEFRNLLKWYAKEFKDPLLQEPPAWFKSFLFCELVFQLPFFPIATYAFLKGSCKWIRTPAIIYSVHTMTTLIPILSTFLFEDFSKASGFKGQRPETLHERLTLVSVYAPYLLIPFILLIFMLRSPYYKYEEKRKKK
T2 sequence (Q99720 whole entry): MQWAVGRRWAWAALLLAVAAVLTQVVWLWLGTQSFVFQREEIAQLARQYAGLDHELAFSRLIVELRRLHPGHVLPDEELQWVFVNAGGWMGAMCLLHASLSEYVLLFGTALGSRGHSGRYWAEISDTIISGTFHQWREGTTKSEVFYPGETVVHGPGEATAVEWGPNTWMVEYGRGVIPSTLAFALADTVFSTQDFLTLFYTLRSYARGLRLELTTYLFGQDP
T1 sequence (Q60492 whole entry): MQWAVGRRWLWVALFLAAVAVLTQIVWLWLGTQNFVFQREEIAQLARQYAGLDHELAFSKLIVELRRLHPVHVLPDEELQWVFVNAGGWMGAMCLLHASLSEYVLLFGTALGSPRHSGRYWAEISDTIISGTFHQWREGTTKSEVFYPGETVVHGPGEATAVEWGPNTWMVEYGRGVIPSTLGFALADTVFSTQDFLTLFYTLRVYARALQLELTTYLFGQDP

| SMILES | Ki [1] [nM] | motor incoordination effect in rat rotarod test ([2]; 20 mg/kg) | motor incoordination effect in rat rotarod test ([2]; 40 mg/kg, t=60 min) | analgesic activity in rat formalin test [3] | analgesic activity, Paclitaxel-induced cold hyperalgesia [4] | analgesic activity, Paclitaxel-induced mechanical allodynia [5] | analgesic activity, STZ-induced mechanical allodynia [6] | analgesic activity, STZ-induced thermal hyperalgesia [7] | potentiation of morphine's analgesia, Tail Flick Test [8] | Ki [9] [nM] | Ki [10] [nM] | analgesic activity, mechanical allodynia in SNL Chung model [11] | analgesic activity, thermal hyperalgesia in SNL Chung model [12] |
| --- | --- | --- | --- | --- | --- | --- | --- | --- | --- | --- | --- | --- | --- |
| Cn1nc(CN2CCCC2)nc1-c1ccc(C(C)(C)C)cc1 [Compound 8, 5-(4-(tert-butyl)phenyl)-1-methyl-3-(pyrrolidin-1-ylmethyl)-1H-1,2,4-triazole] | 2.28 | No motor incoordination effect | very slight and temporary motor incoordination effect | dose-dependent analgesic activity | exhibits analgesic activity | exhibits analgesic activity | exhibits analgesic activity | exhibits analgesic activity | potentiates morphine's analgesia |  |  |  |  |
| CC(C)n1nc(CN2CCC3(CC3)C2)nc1-c1ccc(C(C)(C)C)cc1 [Compound 68, 5-((5-(4-(tert-butyl)phenyl)-1-isopropyl-1H-1,2,4-triazol-3-yl)methyl)-5-azaspiro[2.4]heptane] |  |  |  |  |  |  |  |  |  | 0.75 | 360 | exhibits analgesic activity | exhibits analgesic activity |
